Data as given in patent US20020137929A1, “1 - (3-heterocyclylphenyl) isothiourea, -isourea, -guanidine and -amidine herbicidal agents” (Intellectual Property Department, BASF Aktiengesellschaft, priority 1998, published 2002).

Tests used:
AMBEL (Ragweed, Common) = assay: Postemergence herbicidal evaluation; format: in vivo, Ambrosia artemisifolia
Summary of the method: (§1)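 Seedlings grown about two weeks were sprayed at 40 psi with compound dispersed in 50/50 acetone/water plus 0.5% TWEEN 20, at about 0.0156 to 0.500 kg/ha. Plants were kept in the greenhouse and scored 4–5 weeks later on a 0–9 visual scale against untreated controls.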

CASOB (Sicklepod) = assay: Postemergence herbicidal evaluation; format: in vivo, Cassia obtusifolia
Summary of the method: as §1

GALAP (Galium) [1] = assay: Postemergence herbicidal evaluation; format: in vivo, Galium aparine
Summary of the method: as §1

[2] = test system: GLXMAW (Soybean, Williams); assay: Postemergence herbicidal evaluation; format: in vivo, Glycine max, (L.) Merr. cv Williams
Summary of the method: as §1

[3] = test system: TRZAWR (Wheat, Winter, cv Riband); assay: Postemergence herbicidal evaluation; format: in vivo, Triticum aestivum
Summary of the method: as §1

GALAP (Galium) [4] = assay: Preemergence herbicidal evaluation; format: in vivo, Galium aparine; details: rated 4-5 weeks after treatment
Summary of the method: (§2)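 Each species is sown separately in potting soil over roughly an inch of soil before any emergence. The soil surface then receives an aqueous acetone spray delivering about 0.0156 to 0.500 kg/ha of compound. After four to five weeks, injury is scored from 0 to 9 relative to a control.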

SETVI (Foxtail, Green) = assay: Preemergence herbicidal evaluation; format: in vivo, Setaria viridis; details: rated 4-5 weeks after treatment
Summary of the method: as §2

ORYSAT (Rice, Tebonnet) = assay: Preemergence herbicidal evaluation; format: in vivo, Oryza sativa, (L.) Tebonnet; details: rated 4-5 weeks after treatment
Summary of the method: as §2

[5] = test system: ECHORC (Watergrass (Calif.)); assay: Preemergence weed control under flooded paddy conditions; format: in vivo, Echinochloa oryzoides; details: rated 3-4 weeks after treatment
Summary of the method: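 First, seeds or propagules go into the top 0.5 cm of silt loam; next, water is held 1.5 to 3 cm over the soil; then compound (50/50 acetone/water) is pipetted into it at about 0.0313 to 0.500 kg/ha; finally plants are rated visually 0-9 after three to four weeks.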

CYPSE (Flatsedge) = assay: as above; format: in vivo, Cyperus serotinus; details: rated 3-4 weeks after treatment
Summary of the method: (§3)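 Greenhouse paddy assay. Acetone/water (50/50 v/v) solutions dosed into flood water, equivalent to about 0.0313 to 0.500 kg/ha active ingredient, over seeds planted 0.5 cm deep in silt loam. Score: 0-9 visual, based on stand, vigor, malformation, size and chlorosis, 3 to 4 weeks after treatment.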

MOOVA (Monochoria) = assay: as above; format: in vivo, Monochoria vaginalis; details: rated 3-4 weeks after treatment
Summary of the method: as §3

[6] = test system: SAGPY (Arrowhead (Pygmaea)); assay: as above; format: in vivo, Sagittaria pygmaea; details: rated 3-4 weeks after treatment
Summary of the method: as §3

[7] = test system: ECHORC (Watergrass (Calif.)); assay: Postemergence weed control under flooded paddy conditions; format: in vivo, Echinochloa oryzoides; details: postemergence weeds, 3-4 weeks after treatment
Summary of the method: (§4)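 Injury ratings (0–9 scale covering stand, vigor, malformation, size, chlorosis and overall appearance versus control) were made three to four weeks after treatment. Test material, about 0.0313 to 0.500 kg/ha a.i. in 50/50 v/v aqueous/acetone, was added to flood water 1.5 to 3 cm deep over 3 to 5 cm weeds and 1.5 to 2.5 leaf rice.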

[8] = test system: SAGPY (Arrowhead (Pygmaea)); assay: as above; format: in vivo, Sagittaria pygmaea; details: postemergence weeds, 3-4 weeks after treatment
Summary of the method: as §4

## CCOC(=O)CN1C(=O)C[S+]([O-])/C1=N/c1cc(-n2c(=O)cc(C(F)(F)F)n(C)c2=O)c(F)cc1Cl (stereo not shown) [Compound 45, 2-{{2-Chloro-5-[3,6-dihydro-3-methyl-2,6-dioxo-4-(trifluoromethyl)-1(2H)-pyrimidinyl]-4-fluoro-phenyl}imino}-4-oxo-3-thiazolidineacetic acid, ethyl ester, 1-oxide]
AMBEL (Ragweed, Common); Rate 0.0313 kg/ha
  Postemergence herbicidal rating AMBEL: 4.0
AMBEL (Ragweed, Common); Rate 0.0625 kg/ha
  Postemergence herbicidal rating AMBEL: 9.0
CASOB (Sicklepod); Rate 0.0156 kg/ha
  Postemergence herbicidal rating CASOB: 0.0
CASOB (Sicklepod); Rate 0.0313 kg/ha
  Postemergence herbicidal rating CASOB: 0.0
CASOB (Sicklepod); Rate 0.0625 kg/ha
  Postemergence herbicidal rating CASOB: 0.0
GALAP (Galium) [1]; Rate 0.0156 kg/ha
  Postemergence herbicidal rating GALAP: 0.0
GALAP (Galium) [1]; Rate 0.0313 kg/ha
  Postemergence herbicidal rating GALAP: 0.0
GALAP (Galium) [1]; Rate 0.0625 kg/ha
  Postemergence herbicidal rating GALAP: 0.0
[2]; Rate 0.0156 kg/ha
  Postemergence herbicidal rating GLXMAW: 5.5
[2]; Rate 0.0313 kg/ha
  Postemergence herbicidal rating GLXMAW: 6.5
[2]; Rate 0.0625 kg/ha
  Postemergence herbicidal rating GLXMAW: 7.0
[3]; Rate 0.0156 kg/ha
  Postemergence herbicidal rating TRZAWR: 4.0
[3]; Rate 0.0313 kg/ha
  Postemergence herbicidal rating TRZAWR: 4.0
[3]; Rate 0.0625 kg/ha
  Postemergence herbicidal rating TRZAWR: 4.5
GALAP (Galium) [4]; rate 0.0156 kg/ha
  Preemergence herbicidal rating GALAP: 0.0
GALAP (Galium) [4]; rate 0.0313 kg/ha
  Preemergence herbicidal rating GALAP: 0.0
GALAP (Galium) [4]; rate 0.0625 kg/ha
  Preemergence herbicidal rating GALAP: 0.0
GALAP (Galium) [4]; rate 0.1250 kg/ha
  Preemergence herbicidal rating GALAP: 0.0
GALAP (Galium) [4]; rate 0.2500 kg/ha
  Preemergence herbicidal rating GALAP: 7.0
SETVI (Foxtail, Green); rate 0.0156 kg/ha
  Preemergence herbicidal rating SETVI: 0.0
SETVI (Foxtail, Green); rate 0.0313 kg/ha
  Preemergence herbicidal rating SETVI: 0.0
SETVI (Foxtail, Green); rate 0.0625 kg/ha
  Preemergence herbicidal rating SETVI: 0.0
SETVI (Foxtail, Green); rate 0.1250 kg/ha
  Preemergence herbicidal rating SETVI: 0.0
SETVI (Foxtail, Green); rate 0.2500 kg/ha
  Preemergence herbicidal rating SETVI: 0.0
ORYSAT (Rice, Tebonnet); rate 0.0156 kg/ha
  Preemergence herbicidal rating ORYSAT: 0.0
ORYSAT (Rice, Tebonnet); rate 0.0313 kg/ha
  Preemergence herbicidal rating ORYSAT: 0.0
ORYSAT (Rice, Tebonnet); rate 0.0625 kg/ha
  Preemergence herbicidal rating ORYSAT: 0.0
ORYSAT (Rice, Tebonnet); rate 0.1250 kg/ha
  Preemergence herbicidal rating ORYSAT: 0.0
ORYSAT (Rice, Tebonnet); rate 0.2500 kg/ha
  Preemergence herbicidal rating ORYSAT: 0.0
[5]; 0.0313 kg/ha
  Herbicidal rating ECHORC: 3.0
[5]; 0.0625 kg/ha
  Herbicidal rating ECHORC: 4.0
[5]; 0.1250 kg/ha
  Herbicidal rating ECHORC: 7.0
[5]; 0.2500 kg/ha
  Herbicidal rating ECHORC: 7.0
CYPSE (Flatsedge); 0.0313 kg/ha
  Herbicidal rating CYPSE: 0.0
CYPSE (Flatsedge); 0.0625 kg/ha
  Herbicidal rating CYPSE: 0.0
CYPSE (Flatsedge); 0.2500 kg/ha
  Herbicidal rating CYPSE: 0.0
MOOVA (Monochoria); 0.0313 kg/ha
  Herbicidal rating MOOVA: 7.0
MOOVA (Monochoria); 0.0625 kg/ha
  Herbicidal rating MOOVA: 7.0
MOOVA (Monochoria); 0.1250 kg/ha
  Herbicidal rating MOOVA: 9.0
MOOVA (Monochoria); 0.2500 kg/ha
  Herbicidal rating MOOVA: 9.0
[6]; 0.0313 kg/ha
  Herbicidal rating SAGPY: 0.0
[6]; 0.0625 kg/ha
  Herbicidal rating SAGPY: 0.0
[6]; 0.1250 kg/ha
  Herbicidal rating SAGPY: 0.0
[6]; 0.2500 kg/ha
  Herbicidal rating SAGPY: 4.0
[7]; rate 0.0313 kg/ha
  Herbicidal rating ECHORC: 3.0
[7]; rate 0.0625 kg/ha
  Herbicidal rating ECHORC: 4.0
[7]; rate 0.1250 kg/ha
  Herbicidal rating ECHORC: 7.0
[7]; rate 0.2500 kg/ha
  Herbicidal rating ECHORC: 7.0
[8]; rate 0.0313 kg/ha
  Herbicidal rating SAGPY: 0.0
[8]; rate 0.0625 kg/ha
  Herbicidal rating SAGPY: 0.0
[8]; rate 0.1250 kg/ha
  Herbicidal rating SAGPY: 0.0
[8]; rate 0.2500 kg/ha
  Herbicidal rating SAGPY: 4.0
